# Assay results published in patent US12005107B2, “Compositions comprising recombinant Bacillus cells and a fungicide” (priority 2014, dated 2024).
# Tested on: Maize
# Assay: Plant growth promotion, maize whole plant biomass after drench of growing media
# Format: in vivo
substance,measurement,setting,value
trifloxystrobin,"Efficacy % (additional % of plant weight compared with untreated control, actual effect observed)","drench at planting, after 14 days",1%
same,"Found % (plant weight, 100% = untreated control)","drench at planting, after 14 days, relative to UTC",101%
same,Whole Plant Biomass,"growing media drenched at planting, measured after 14 days, trifloxystrobin 0.024 mg/pot, BEE 7.85 × 10^8 CFU/pot",2.69 g
